Test results: ChEMBL document CHEMBL1151327, “Cytotoxicity of curcuminoids and some novel compounds from Curcuma zedoaria” (1998)
In brackets after ≈: the same amount, converted by molar mass. Activity calls are given as the source filed them. The rule behind the calls is not given here.

Legend:
OVCAR-3 [1] = experiment: Cytotoxicity against human OVCAR-3 upto 20 ug/mL after 48 hrs; assay type: functional, cell-based
OVCAR-3 [2] = experiment: Cytotoxicity against human OVCAR-3 after 48 hrs; assay type: functional; settings: OVCAR-3, 48 h, read-out: CD50 (the source's name)

SMILES	Activity (OVCAR-3 [1])	CC50 (OVCAR-3 [2]) [µg/mL]
C=C(C)[C@@H]1CC[C@](C)(O)[C@H]2CC[C@](C)(O)[C@H]2C1	inactive	
O=C(/C=C/c1ccc(O)cc1)CC(=O)/C=C/c1ccc(O)cc1 [BISDEMETHOXYCURCUMIN]		3.1 (≈ 10.1 µM)
COc1cc(/C=C/C(=O)CC(=O)/C=C/c2ccc(O)c(OC)c2)ccc1O [CURCUMIN]		4.4 (≈ 11.9 µM)
Cc1coc2c1C(=O)[C@@H]1[C@@](C)(C2)[C@H](O)CC[C@@]1(C)O	inactive	
Cc1cc(C(=O)O)cc2c1CCC2C (stereo unspecified)	inactive	
COc1cc(/C=C/C(O)=C/C(=O)/C=C/c2ccc(O)cc2)ccc1O [DEMETHOXYCURCUMIN]		3.8 (≈ 11.2 µM)
